In patent US8168797B2, “Oxazolidinone derivative with difluorophenyl moiety, pharmaceutically acceptable salt thereof, preparation method thereof and antibiotic composition containing the same as an active ingredient” (Korea Institute of Science and Technology, priority 2008, dated 2012):
Values after ≈ are worked out from the molar mass of the structure shown.

How the values were obtained:
Format in all cases: cell-based
[1] = tested on: Coagulase negative staphylococi; test: MIC by agar dilution method using Muller-Hinton agar; conditions: read-out: Inhibitory Activity (MIC); strain b: Coagulase negative staphylococi
Description: (§1) To this end, the compound of Example 2 and the currently used oxazolidinone class Linezolid were examined for minimal inhibitory concentration (hereinafter, referred to as “MIC”) against Gram-positive strains and resistant bacteria including methicillin-resistant Staphylococcus aureus (MRSA) and vancomycin resistant enterococci by an agar dilution method using Muller-Hinton agar.
(§2) As used herein, the term MIC is intended to refer to the lowest concentration of an antibiotic that will inhibit the growth of a microorganism. MIC values are expressed as μg/ml. Bacterial strains used for this assay included Haemophilus influenza, Coagulase negative staphylococi, Staphylcoccus aureus (MRSA), Enterococcus faecalis (VER), Enterococcus faecium (VR 1, VR 2), and Vancomycin resistant enterococci 1˜6.
(§3) After being incubated for 18 hours in a Muller-Hinton broth, the strains were transferred to fresh broth at a concentration of approximately 10^7 CFU/ml. Isolates were distributed with a multipoint inoculator (MIC-2000 Dynatech) at 10^4 CFU per spot onto agar plates containing the compound of the Examples or Comparative Examples.

[2] = tested on: Enterococcus faecalis (VRE); test: as above; conditions: strain d: Enterococcus faecalis (VRE); read-out: Inhibitory Activity (MIC)
Description: as §1, §2, §3

[3] = tested on: Enterococcus faecium (VR 1); test: as above; conditions: strain e: Enterococcus faecium (VR 1); read-out: Inhibitory Activity (MIC)
Description: as §1, §2, §3

[4] = tested on: Enterococcus faecium (VR 2); test: as above; conditions: strain f: Enterococcus faecium (VR 2); read-out: Inhibitory Activity (MIC)
Description: as §1, §2, §3

Haemophilus influenza = test: as above; conditions: read-out: Inhibitory Activity (MIC); strain a: Haemophilus infuenz
Description: as §1, §2, §3

[5] = tested on: Staphylcoccus aureus (MRSA); test: as above; conditions: Staphylococcus aureus; strain c: Staphylcoccus aureus (MRSA); read-out: Inhibitory Activity (MIC)
Description: as §1, §2, §3

[6] = tested on: Vancomycin resistant enterococci 1; test: as above; conditions: strain g: Vancomycin resistant enterococci 1; read-out: Inhibitory Activity (MIC)
Description: as §1, §2, §3

[7] = tested on: Vancomycin resistant enterococci 2; test: as above; conditions: strain h: Vancomycin resistant enterococci 2; read-out: Inhibitory Activity (MIC)
Description: as §1, §2, §3

[8] = tested on: Vancomycin resistant enterococci 3; test: as above; conditions: strain i: Vancomycin resistant enterococci 3; read-out: Inhibitory Activity (MIC)
Description: as §1, §2, §3

[9] = tested on: Vancomycin resistant enterococci 4; test: organism not typed; conditions: read-out: Inhibitory Activity (MIC)
Description: as §1, §2, §3

[10] = tested on: Vancomycin resistant enterococci 5; test: organism not typed; conditions: read-out: Inhibitory Activity (MIC)
Description: as §1, §2, §3

[11] = tested on: Vancomycin resistant enterococci 6; test: organism not typed; conditions: read-out: Inhibitory Activity (MIC)
Description: as §1, §2, §3

[12] = tested on: Gram-positive strains and resistant bacteria including MRSA and vancomycin resistant enterococci; test: MIC by agar dilution, text summary over the strain panel; conditions: read-out: MIC against Haemophilus influenza, Coagulase negative staphylococci and vancomycin resistant enterococci (VRE)
Description: as §1, §2, §3

Row | SMILES | MIC [1] [µg/mL] | MIC [2] [µg/mL] | MIC [3] [µg/mL] | MIC [4] [µg/mL] | MIC (Haemophilus influenza) [µg/mL] | MIC [5] [µg/mL] | MIC [6] [µg/mL] | MIC [7] [µg/mL] | MIC [8] [µg/mL] | MIC [9] [µg/mL] | MIC [10] [µg/mL] | MIC [11] [µg/mL] | MIC [12] [µg/mL]
1 | CC(=O)NC[C@H]1CN(c2cc(F)c(N3CC(F)C4(CC4)C3)c(F)c2)C(=O)O1 (stereo partly drawn) [Example 2, (S)—N-{{3-[3,5-Difluoro-4-(7-fluoro-5-azaspiro[2,4]heptan-5-yl)phenyl]-2-oxo-5-oxazolidinyl}methyl}acetamide] | 0.781 (≈ 2.04 µM) | 1.56 (≈ 4.08 µM) | 1.56 (≈ 4.08 µM) | 1.56 (≈ 4.08 µM) | 0.781 (≈ 2.04 µM) | 1.56 (≈ 4.08 µM) | 3.12 (≈ 8.15 µM) | 1.56 (≈ 4.08 µM) | 3.12 (≈ 8.15 µM) | 0.781 (≈ 2.04 µM) | 0.781 (≈ 2.04 µM) | 0.781 (≈ 2.04 µM) | 
2 | CC(=O)NC[C@H]1CN(c2ccc(N3CCOCC3)c(F)c2)C(=O)O1 [Linezolid, reference compound] | 3.12 (≈ 9.26 µM) |  |  |  | 3.12 (≈ 9.26 µM) |  |  |  |  |  |  |  | 1.56 to 3.12 (≈ 4.63 to 9.26 µM)
